Test results published in patent publication US20070082945A1, “Discodermolide compositions” (priority 2003, published 2007).
≈ marks a conversion by molar mass, not a printed value.

What was measured:
[1] = Solubility of discodermolide in various solvent systems measured by HPLC; assay type: physicochemical
Description: The solubility of discodermolide in various solvent systems is measured by HPLC and the results shown below: […]

[2] = Stability of 16 mg/mL infusion concentrate in propylene glycol (HPLC, UV detector), Example 13; assay type: physicochemical; conditions: for Assay / Total Impurities: 16 mg/mL infusion concentrate in PG
Description: The stability of an infusion concentrate of 16 mg/mL in propylene glycol at different temperatures is determined. Table 3 describes the amount of degradation product formed over a period of up to 12 weeks. The stability is analyzed by determining formation of degradation products in each of the infusion concentrates as a function of time and temperature. Each sample is analyzed by HPLC with a UV detector.

[3] = Solubility and stability in 40% PG/10% ethanol/50% normal saline with hydrotropic agents; assay type: physicochemical; conditions: aqueous with cosolvent or surfactant or cyclodextrin, read-out: Discodermolide Solubility
Source text: The solubility and stability of discodermolide in 40% propylene glycol/10% ethanol 50% normal saline diluted with hydrotropic agents is shown in Table 7.

[4] = Storage stability of infusion concentrate vials and infusion solution; assay type: physicochemical
Description: An infusion concentrate comprising 2 mg of discodermolide is dissolved in 98-100% propylene glycol (PG) (1.0 mL) and charged to 6 mL vials. The vials are used for storage and shipment. The vials are stable for a period of at least 2 years at a temperature of 2-8° C. The vehicle is prepared in a separate 2 mL single dose vial. Each mL of solution contains 7.3 mg of sodium chloride USP, and 163 mg of ethanol (EtOH) in water for injection(saline) (16.3% ethanol in 0.9% sodium chloride solution, 2 mL fill). The storage condition is 25° C. for the vehicle. Prior to i.v. administration, 1.6 mL of the vehicle is withdrawn with a sterile disposable syringe and injected into the vial containing the discodermolide. The solution is gently shaken until a clear homogeneous solution for infusion is obtained containing 0.77 mg/mL discodermolide in 40% propylene glycol, 10% ethanol and 50% normal saline. The ratio of discodermolide concentrate to the diluent vehicle in the diluted solution is 1:1.6 v/v. The i.v. solution thus formed is stable for a period of 8 hours at room temperature.

[5] = Solubility and stability in aqueous media; assay type: physicochemical
[6] = Precipitation on direct i.v. infusion followed by normal saline flush; conditions: direct i.v. infusion into the vein followed by a normal saline flush
Description: Preferably the infusion solution of the present invention is prepared by mixing the infusion concentrate with a diluent, such as 16.3% w/v ethanol in saline in a suitable container. A preferred formulation comprises 1 mL of 2 mg/mL infusion concentrate diluted with 1.6 mL of 16.3% w/v ethanol in saline to yield an infusion solution containing 0.77 mg/mL discodermolide in 40% propylene glycol, 10% ethanol and 50% normal saline. This solution is administered via i.v. infusion, or push into Y tubing containing a 0.9% normal saline drip, directly into the vein and the drug solution residue in the tubing will be flushed with normal saline. The volume of discodermolide solution given via i.v. push will vary from 0.3 mL (at the starting does of 0.2 mg or 0.13 mg/m^2) to 26 mL (for a dose of 20 mg or 11.43 mg/m^2) or 43 mL (for a dose of 33 mg or 19.2 mg/m^2).

microtubules = conditions: compared with paclitaxel; cited from earlier work
purified tubulin = conditions: among the compounds known to induce polymerization; cited from earlier work
[7] = normal saline (0.9% sodium chloride)

C=C/C=C\C(C)[C@H](OC(N)=O)[C@@H](C)[C@H](O)[C@@H](C)C/C(C)=C\C(C)C(O)[C@@H](C)/C=C\[C@@H](O)C[C@@H]1OC(=O)[C@H](C)C(O)C1C (single isomer, unassigned; (+)) [discodermolide, (+)-Discodermolide]
solubility ([1]; 20% PEG 300/80% normal saline, aqueous with cosolvent or surfactant or cyclodextrin): 20 µg/mL (≈ 33.7 µM)
solubility ([1]; 20% propylene glycol/80% normal saline, aqueous with cosolvent or surfactant or cyclodextrin, 20% PG/80% normal saline): 130 µg/mL (≈ 219 µM)
solubility ([1]; 30% ethanol/70% normal saline, aqueous with cosolvent or surfactant or cyclodextrin): 200 µg/mL (≈ 337 µM)
solubility ([1]; 60% PEG 300/40% normal saline, aqueous with cosolvent or surfactant or cyclodextrin): 400 µg/mL (≈ 674 µM)
solubility ([1]; 60% ethanol/40% normal saline, aqueous with cosolvent or surfactant or cyclodextrin): 2300 µg/mL (≈ 3870 µM)
solubility ([1]; 60% propylene glycol/40% normal saline, aqueous with cosolvent or surfactant or cyclodextrin, 60% PG/40% normal saline): 530 µg/mL (≈ 893 µM)
solubility ([1]; 100% PEG 300, organic solvent or mixture): > 20000 µg/mL
solubility ([1]; 100% ethanol, organic solvent or mixture): > 20000 µg/mL
solubility ([1]; 100% propylene glycol, organic solvent or mixture, 100% PG): > 20000 µg/mL
Assay ([2]; 0-time): 103.9 % label claim
Total Impurities ([2]; 0-time): 0.59%
Assay ([2]; 5° C., 4 weeks): 102.2 % label claim
Total Impurities ([2]; 5° C., 4 weeks): 0.60%
Assay ([2]; 5° C., 8 weeks): 101.4 % label claim
Total Impurities ([2]; 5° C., 8 weeks): 0.48%
Assay ([2]; 5° C., 12 weeks): 100.7 % label claim
Total Impurities ([2]; 5° C., 12 weeks): 0.49%
Assay ([2]; 25° C./60% RH, 3 weeks): 100.7 % label claim
Total Impurities ([2]; 25° C./60% RH, 3 weeks): 0.56%
Assay ([2]; 25° C./60% RH, 4 weeks): 103.6 % label claim
Total Impurities ([2]; 25° C./60% RH, 4 weeks): 0.66%
Assay ([2]; 25° C./60% RH, 8 weeks): 100.5 % label claim
Total Impurities ([2]; 25° C./60% RH, 8 weeks): 0.68%
Assay ([2]; 25° C./60% RH, 12 weeks): 100.1 % label claim
Total Impurities ([2]; 25° C./60% RH, 12 weeks): 0.65%
Assay ([2]; 50° C./75% RH, 3 weeks): 99.4 % label claim
Total Impurities ([2]; 50° C./75% RH, 3 weeks): 0.65%
Assay ([2]; 50° C./75% RH, 4 weeks): 101.6 % label claim
Total Impurities ([2]; 50° C./75% RH, 4 weeks): 0.65%
Assay ([2]; 50° C./75% RH, 8 weeks): 99.5 % label claim
Total Impurities ([2]; 50° C./75% RH, 8 weeks): 0.65%
Assay ([2]; 50° C./75% RH, 12 weeks): 99.2 % label claim
Total Impurities ([2]; 50° C./75% RH, 12 weeks): 0.62%
Degradation profile and long term stability ([2]; 16 mg/mL infusion concentrate in propylene glycol): comparable to 2.0 mg/mL
solubility ([3]; 40% PG/10% EtOH/4% benzoic acid in normal saline): 1900 µg/mL (≈ 3200 µM)
solubility ([3]; 40% PG/10% EtOH/4% benzoic acid/1% benzyl alcohol in normal saline): 2200 µg/mL (≈ 3700 µM)
solubility ([3]; propylene glycol/ethanol/normal saline mixture, 40% PG/10% EtOH in normal saline): 910 µg/mL (≈ 1530 µM)
Period of stability of i.v. solution ([4]; 0.77 mg/mL in 40% propylene glycol, 10% ethanol, 50% normal saline, room temperature): 8 h
Period of stability of infusion concentrate vials ([4]; 2 mg discodermolide in 1.0 mL 98-100% propylene glycol, 2-8° C.): at least 2 years
Solubility in aqueous solvents and aqueous-organic mixtures [5]: poor solubility
Stability in aqueous solvents and aqueous-organic mixtures [5]: poor stability
Degradation on dilution of infusion concentrate [5, 7]: degrades to the hydrolysis product
Precipitation on dilution of infusion concentrate [5, 7]: precipitation of the discodermolide is observed
Solubility in water ([5]; water): practically insoluble
Precipitation on administration [6]: will not cause any precipitation
Effectiveness in mechanism-based assays (microtubules): more effective than paclitaxel
Potency to induce polymerization of purified tubulin (purified tubulin): the most potent
